GI50 and TGI data for nine compounds are collected here from PubChem BioAssay (NCI).

Common to all, as to test: NCI-60 cell line screen, 48 h
In assay [1] the test system is NCI-H460 lung.
In assay [2] the test system is COLO 205 colon.
In assay [3] the test system is UO-31 renal.
Assay [4] deals with SN12C renal.
Assay [5] deals with BT-549 breast.
Assay [6] deals with MDA-MB-435.
In assay [7] the test system is OVCAR-4 ovarian.
The test system of assay [8] is TK-10 renal.

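Growth conditions: 96-well plates. Treatment: test compound, 48 hours, 5 concentrations. Analysis: linear interpolation between bracketing concentrations; unreached endpoints set to highest concentration. Here, GI50 denotes the concentration required for 50% inhibition of growth. TGI: concentration producing complete growth inhibition.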

Consider `CC(C)OC(=O)OCOP(=O)(OCOC(=O)OC(C)C)C1CCCN(O)C1=O` (centres undefined), for which the GI50 is 1.14 µM in assay [1]; 3.71 µM in assay [2]; 0.197 µM in assay [3]; 0.281 µM in assay [4]; 0.468 µM in assay [5]; 5.29 µM in assay [6]. Also, the GI50 in assay [7] was 2.32 µM; in assay [8] it was 1.54 µM. For the same compound, the TGI was greater than 100 µM in assay [1]; greater than 100 µM in assay [2]; 68.1 µM in assay [3]; greater than 100 µM in assay [4]; 11.7 µM in assay [5]; greater than 100 µM in assay [6]. For the same compound, the TGI in assay [7] and in assay [8] was greater than 100 µM in each case.

For `CCN(CC)CCCC(C)Nc1ccnc2cc(OC)ccc12` (centres undefined), the GI50 in assay [1] was greater than 100 µM; in assay [2], 16.1 µM; in assay [3], 16.4 µM; in assay [4], 29.7 µM; in assay [5] it was 18.7 µM; in assay [6], 19.9 µM. Besides, the GI50 was 22.6 µM in assay [7] and 17.7 µM in assay [8]. Besides, the TGI is greater than 100 µM in assay [1]; 36.8 µM in assay [2]; 34.6 µM in assay [3]; 75.1 µM in assay [4]; 37 µM in assay [5]; 40.5 µM in assay [6]. Also, the figures for the TGI in assay [7] and in assay [8] were 62.2 µM and 40.6 µM, respectively.

As for `NC1=Nc2cc(OCCCCN3Cc4ccccc4C3)c(OCC3CC3)cc2C12CCCC2`, the GI50 was 1.67 µM in assay [1]; 1.45 µM in assay [2]; 1.46 µM in assay [3]; 1.7 µM in assay [4]; 1.57 µM in assay [5]; 1.59 µM in assay [6]. The GI50 in assay [7] is 3.11 µM; in assay [8], 1.75 µM. For the same compound, the TGI in assay [1] stood at 3.21 µM; in assay [2], 3.11 µM; in assay [3] it was 2.88 µM; in assay [4], 3.41 µM; in assay [5], 3.33 µM; in assay [6], 2.99 µM. Moreover, the TGI in assay [7] was 14.7 µM; in assay [8], 3.45 µM.

For the compound `CC1(C)CC[C@]2(C(=O)O)CC[C@]3(C)C(=CC[C@@H]4[C@@]5(C)C/C(=C/c6cccnc6)[C@H](O)C(C)(C)[C@@H]5CC[C@]43C)[C@@H]2C1`, the GI50 in assay [1] is 4.14 µM; in assay [2], 9.71 µM; in assay [3], 4.64 µM; in assay [4] it was 4.7 µM; in assay [5], 12.4 µM; in assay [6], 15.2 µM. In addition, the GI50 is 40 µM in assay [7] and 21.7 µM in assay [8]. For the same compound, the TGI in assay [1] was 26.4 µM; in assay [2] it was 29.6 µM; in assay [3], 19.2 µM; in assay [4], greater than 100 µM; in assay [5], greater than 100 µM; in assay [6], greater than 100 µM. For the same compound, the TGI in assay [7] and in assay [8] was greater than 100 µM each time.

Regarding `N#CSc1c[nH]c2cccc(/C=C/C(=O)/C=C(O)/C=C/c3cccc4[nH]cc(SC#N)c34)c12`, the GI50 in assay [1] was 0.228 µM; in assay [2] it was 0.423 µM; in assay [3], 0.197 µM; in assay [4] it was 0.364 µM; in assay [5], 0.5 µM; in assay [6], 0.542 µM. The GI50 in assay [7] is 0.216 µM; in assay [8] it was 0.756 µM. Besides, the TGI in assay [1] came to 0.899 µM; in assay [2] it was 1.07 µM; in assay [3] it was 0.652 µM; in assay [4], 1.57 µM; in assay [5], 1.63 µM; in assay [6], 1.42 µM. Further, the values for the TGI in assay [7] and in assay [8] were 1.72 µM and 2.51 µM, respectively.

On to `CC1(C)N=C(N)N=C(N)N1c1cccc(CC(=O)Nc2ccccc2)c1`, for which the GI50 was 3.63 µM in assay [1]; 47.3 µM in assay [2]; greater than 100 µM in assay [3]; 4.84 µM in assay [4]; 45.1 µM in assay [5]; 4.38 µM in assay [6]. The GI50 in assay [7] is 81.8 µM; in assay [8] it was greater than 100 µM. The TGI in assay [1], in assay [2], in assay [3], in assay [4], in assay [5] and in assay [6] was greater than 100 µM throughout. In addition, the TGI in assay [7] and in assay [8] was greater than 100 µM each time.

On to `COc1ccc2c(c1)OCC1c3cc(OC)ccc3OC21` (centres undefined), for which the GI50 in assay [1] is 32.1 µM; in assay [2], 38.2 µM; in assay [3], 39 µM; in assay [4], 74.3 µM; in assay [5], 34.4 µM; in assay [6], 50.8 µM. Moreover, the GI50 in assay [7] is 39.2 µM; in assay [8], greater than 100 µM. The TGI in assay [1], in assay [2], in assay [3], in assay [4], in assay [5] and in assay [6] was greater than 100 µM each time. The TGI in assay [7] and in assay [8] was greater than 100 µM each time.

In the case of `CC(C)c1c(C(=O)Nc2ccccc2)c(-c2ccccc2)c(-c2ccc(F)cc2)n1CC[C@@H](O)C[C@@H](O)CC(=O)O`, the GI50 is 41.3 µM in assay [1]; 24.5 µM in assay [2]; 30.2 µM in assay [3]; 7.56 µM in assay [4]; 15.6 µM in assay [5]; 15.1 µM in assay [6]. For the same compound, the GI50 was 27.8 µM in assay [7] and 45.5 µM in assay [8]. Also, the TGI in assay [1] is greater than 100 µM; in assay [2], greater than 78.9 µM; in assay [3] it was greater than 100 µM; in assay [4], greater than 100 µM; in assay [5], 41.7 µM; in assay [6], greater than 100 µM. The TGI in assay [7] and in assay [8] was greater than 100 µM throughout.

As to `CCc1ccc2cc3c(ccc4ccccc43)c3c2c1CC3`, the GI50 in assay [1], in assay [2], in assay [3], in assay [4], in assay [5] and in assay [6] was greater than 100 µM each time. Also, the GI50 in assay [7] and in assay [8] was greater than 100 µM each time. In addition, the TGI in assay [1], in assay [2], in assay [3], in assay [4], in assay [5] and in assay [6] was greater than 100 µM in each case. Further, the TGI in assay [7] and in assay [8] was greater than 100 µM throughout.
